Assays:
[1] = tested on: HIV-1 infected monocytes (U1); experiment: ZetaView nanoparticle tracking analysis of EVs released from HIV-1 infected U1 monocytes; assay type: cell-based; conditions: 5 days; for EV diameter (mean, median, peak): 1, 5, 10 μM or μg/mL, FIG. 8B-D; for release of EVs (EV concentration) / size of the EV (mean size): 1, 5, 20, 50 μM; for release of EVs (EV concentration): FIG. 2A; for size of the EV (mean size): FIG. 2B
Procedure: HIV-1 infected monocytes (U1) were treated with cannabidiol (“CBD”) (1, 5, 20, and 50 μM) or with tetrahydrocannabinol (“THC”) (1, 5, 20, and 50 μM) for 5 days. The supernatants from the treated cells were analyzed by Zeta View Nanoparticle Tracking analysis for changes in concentration. Student's t-test was used to determine significance (***=p<0.001, **=p<0.01, *=p<0.05).
HIV-1 infected monocytes (U1) were treated with cannabidiol (“CBD”) (1, 5, 20, and 50 μM) or with tetrahydrocannabinol (“THC”) (1, 5, 20, and 50 μM) for 5 days. The supernatants from the treated cells were analyzed by Zeta View Nanoparticle Tracking analysis for changes in mean size. Student's t-test was used to determine significance (***=p<0.001, **=p<0.01, *=p<0.05).
FIGS. 8A-8D are graphs showing Cannabis components lower EVs released from HIV-1 infected monocytes. HIV-1 infected U1 monocytic cells (1×10^6) were treated with a titration of CBD (1, 5, and 10 μM) and THC (1, 5, and 10 μg/mL) every day for 5 days. Cells were pelleted and supernatant was used for Zetaview NTA analysis to determine (A) EV concentration, (B) median size, (C) mean size, and (D) peak size. Each bar represents an average of three independent replicates. Student's t-test was used for statistical analysis, where *p-value≤0.05; **p-value≤0.01, ***p-value≤0.001.
HIV-1 infected monocytes (U1) were treated with a titration of CBD (1, 5, 20, and 50 μM) or a titration of THC (1, 5, 20, and 50 μM) for 5 days. Resulting supernatants from the treated cells were analyzed by Zeta View Nanoparticle Tracking analysis for changes in concentration (FIG. 2A) or mean size (FIG. 2B).
NTA was performed with the ZetaView Z-NTA (Particle Metrix) and its software (ZetaView 8.04.02). The machine was calibrated according to manufacturer's protocol. Following the measurement and removal of any outliers from the measured 11 positions, the mean size (diameter; nm) and the concentration of the sample (EV number) were analyzed by the associated ZetaView software. Measurement data from the ZetaView were used to calculate averages and standard deviations from technical triplicates using Microsoft Excel 2016.
(§1) Supernatants were harvested and analyzed using ZetaView NTA.
To verify that the observed decrease in EVs was not the result of modifications in packaging of various cargos into larger EVs, the mean diameter size (FIG. 8B), median diameter size (FIG. 8C), and peak diameter size (FIG. 8D) were also analyzed.

[2] = tested on: HIV-1 infected monocytes (U1); experiment: Western blot/densitometry of EV-associated proteins (NT80/82-enriched supernatant) from U1 cells; assay type: cell-based; conditions: for CD81 (EV marker) in EVs / EV-associated Nef / EV-associated gp120: 1, 5, 20, 50 μM, FIG. 2C; for EV CD81 level / EV-associated Nef (30 kDa) / EV-associated myristoylated Nef dimer (70 kDa): CBD 1, 5, 10 μM, THC 1, 5, 10 μg/mL, FIG. 9A; for increase in EV-associated gp160 (densitometry): maximum, CBD lane 4 (10 μM), THC lane 7 (10 μg/mL)
[3] = tested on: HIV-1 infected U1 monocytic cells; experiment: MTT cell viability assay; assay type: cell-based; conditions: CBD 1, 5, 10 μM, THC 1, 5, 10 μg/ml, 5 days, FIG. 7
Procedure: FIG. 7 is a graph showing cell viability analysis of cannabidiol components on HIV-1 infected monocytes. HIV-1 infected U1 monocytic cells (1×10^6) were treated with CBD (green bars) at 1, 5, 10 and 50 μM) or THC (blue bars) at 1, 5, 10 and 50 μg/mL) every day for 5 days. Cell viability was determined using the MTT assay. Student's t-test was used for statistical analysis, where n.s is not significant, *p-value≤0.05; **p-value≤0.01, ***p-value≤0.001.
Cells were cultured in RPMI with 10% exosome-free FBS at 10^6 cells per well in 6 well plates. Cells were treated with 0.005% ethanol (control), CBD (1, 5 10, 50 μm) and THC (1, 5, 10, 50 μg/mL) once per day for 5 days. The MTT assay was used to measure cell death according to manufacturer's protocol (Sigma). After incubating with MTT solution for 2 h, the culture medium was aspirated and 1 mL of MTT solvent was added to each well. Cell viability was determined by the formation of formazan crystal and measured by absorbance at 590 nm and 620 nm, as previously described (Cotto et al., 2018, Cocaine and HIV-1 Tat Disrupt Cholesterol Homeostasis in Astrocytes: Implications for HIV-Associated Neurocognitive Disorders in Cocaine User Patients. Glia, 66(4), 889-902).
as §1

cdk9/Cyclin Ti = target: T1, cdk9/Cyclin Ti (Homo sapiens, UniProt P50750); experiment: Kinase assay: cdk9 immunoprecipitate, phosphorylation of histone H1; assay type: biochemical; conditions: for phosphorylation of Histone H1: U1, CBD 1 μM, THC 1 μg/mL every day for 5 days, anti-cdk9 IP, FIG. 17 legend
T1 construct: Lysates were immunoprecipitated with 10 μg of cdk9 or IgG antibodies overnight at 4° C; endogenous in cells; host or cells: U1 cells treated with CBD or THC for 5 days, then lysed and immunoprecipitated with anti-cdk9
Procedure: U1 cells (5×10^6) were treated with CBD (1 μM) and THC (1 μg/mL) every day for 5 days. Cells were then lysed, centrifuged and the supernatants (˜150 ug) incubated with anti-cdk9 and IgG antibodies as described in the Kinase Assay section (Materials and Methods), ran on a 4-20% gel and dried, followed by imaging for phosphorylated Histone 1 (p-H1). p-H1 Densitometry counts were calculated on the kinase blot and normalized to background gel pieces.
U1 cells (5×10^6) were treated with CBD (1 μM) and THC 1 μg/mL) every day for 5 d. Cells were pelleted by centrifugation at 15,000×g for 5 minutes, washed with 1×PBS, and lysed in 250 μL lysis buffer. Lysates were immunoprecipitated with 10 μg of cdk9 or IgG antibodies overnight at 4° C., followed by a 2 h incubation with A/G beads at 4° C. IP complexes were washed with TNE50+0.1% NP40 buffer and kinase buffer as described in (Guendel et al., 2014, Novel Neuroprotective GSK-3β Inhibitor Restricts Tat-Mediated HIV-1 Replication. Journal of Virology, 88(2), 1189-1208), followed by 1 h incubation period at 37° C. with γ-^32P ATP and purified histone H1. The samples (50%) were loaded and run through SDS-PAGE on a 4-20% Tris-Glycine gel, followed by staining with Coomassie blue, destain with destain buffer (50% methanol and 10% acetic acid), and dried for 2 h. The dried gels were exposed to a PhosphorImager Cassette, followed by analysis via Molecular Dynamic's ImageQuant Software.
U1 monocytes were treated with CBD (10 μM) and Flavo (50 nM) for short periods (0, 2 and 6 hours) due to the fact that HIV-1 transcription activity is a rapid event that can be scored using chromatin immunoprecipitation (ChIP) assay for factor occupancy. Treated samples were lysed and incubated with IgG control and Pol II (serine 2/5) antibodies for ChIP, followed by qPCR analysis for TAR DNA. […] As expected, there was no change in amount of TAR DNA pulled down with PolII with any treatment compared to the untreated control at 0 hours samples (lanes 1-3).

T1 sequence (P50750 whole entry): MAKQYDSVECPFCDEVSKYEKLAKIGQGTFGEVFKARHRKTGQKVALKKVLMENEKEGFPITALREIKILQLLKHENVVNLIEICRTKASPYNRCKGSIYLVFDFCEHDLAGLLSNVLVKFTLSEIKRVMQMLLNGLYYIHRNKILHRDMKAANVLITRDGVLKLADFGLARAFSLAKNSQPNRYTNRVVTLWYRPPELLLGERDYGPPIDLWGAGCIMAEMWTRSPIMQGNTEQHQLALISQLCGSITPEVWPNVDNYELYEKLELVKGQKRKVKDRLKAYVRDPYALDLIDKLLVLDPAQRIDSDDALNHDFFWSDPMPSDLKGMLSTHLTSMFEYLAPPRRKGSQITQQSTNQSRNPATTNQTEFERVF
T1 sequence (O60563 whole entry partner): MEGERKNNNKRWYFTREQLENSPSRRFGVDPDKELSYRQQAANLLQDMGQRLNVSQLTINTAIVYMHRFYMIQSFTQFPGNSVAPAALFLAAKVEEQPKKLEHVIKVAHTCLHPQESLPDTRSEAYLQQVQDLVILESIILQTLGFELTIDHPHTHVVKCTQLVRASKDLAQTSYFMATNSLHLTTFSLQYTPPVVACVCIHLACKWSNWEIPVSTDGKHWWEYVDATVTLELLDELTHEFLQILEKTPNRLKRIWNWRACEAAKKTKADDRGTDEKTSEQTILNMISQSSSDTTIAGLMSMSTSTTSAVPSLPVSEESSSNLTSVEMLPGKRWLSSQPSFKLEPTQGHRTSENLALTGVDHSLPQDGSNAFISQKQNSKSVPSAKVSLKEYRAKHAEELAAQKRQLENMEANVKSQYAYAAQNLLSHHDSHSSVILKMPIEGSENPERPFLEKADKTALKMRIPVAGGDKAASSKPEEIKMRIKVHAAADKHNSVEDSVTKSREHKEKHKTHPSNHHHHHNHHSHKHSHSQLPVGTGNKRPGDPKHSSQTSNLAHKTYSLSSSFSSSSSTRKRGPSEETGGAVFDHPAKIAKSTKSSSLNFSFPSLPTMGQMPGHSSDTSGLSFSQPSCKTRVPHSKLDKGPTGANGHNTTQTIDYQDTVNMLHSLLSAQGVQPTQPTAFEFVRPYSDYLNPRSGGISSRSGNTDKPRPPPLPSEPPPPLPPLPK

Structure (SMILES) | EV diameter (mean, median, peak) [1] | release of EVs (EV concentration) [1] | size of the EV (mean size) [1] | CD81 (EV marker) in EVs ([2]; U1, 5 days) | EV-associated Nef ([2]; U1, 5 days) | EV-associated gp120 ([2]; U1, 5 days) | EV CD81 level ([2]; U1, 5 days) | EV-associated Nef (30 kDa) ([2]; U1, 5 days) | EV-associated myristoylated Nef dimer (70 kDa) ([2]; U1, 5 days) | increase in EV-associated gp160 (densitometry) [2] | cell viability [3] | phosphorylation of Histone H1 (cdk9/Cyclin Ti) | other results
C=C(C)[C@@H]1CCC(C)=C[C@H]1c1c(O)cc(CCCCC)cc1O [CBD, 2-[1R-3-methyl-6R-(1-methylethenyl)-2-cyclohexen-1-yl]-5-pentyl-1,3-benzenediol] | little to no change in diameter | significantly reduced the release of EVs | without altering the size of the EV | reduction in CD81 | dose-dependent decrease | dose-dependent decrease | decreased | dose-dependent decrease | dose-dependent decrease | up to 125% | no effects on cell viability | lower phosphorylation of Histone H1 | decrease in EVs compared to untreated control ([1]; 1 μM, FIG. 8A lane 2): 44%; decrease in EVs compared to untreated control ([1]; 5 μM, FIG. 8A lane 3): 76%; decrease in EVs compared to untreated control ([1]; 10 μM, FIG. 8A lane 4): 79%; reduction in EV-associated gp120 (densitometry) ([2]; U1, CBD 1, 5, 10 μM (lanes 2-4), 5 days): 39-58%; reduction in EV CD81 expression (densitometry) ([2]; U1, low titer CBD (lane 2, 1 μM), 5 days, FIG. 10A): 80%; decrease in EV-associated Nef (30 kDa), densitometry ([2]; greatest reduction, lane 3 (CBD 5 μM), FIG. 10): up to 79%; cdk9/Cyclin Ti activity in vitro (cdk9/Cyclin Ti; FIG. 17): did not inhibit
CCCCCc1cc(O)c2c(c1)OC(C)(C)[C@@H]1CCC(C)=C[C@@H]21 [THC, Δ9-tetrahydrocannabinol] | little to no change in diameter | significantly reduced the release of EVs | without altering the size of the EV | reduction in CD81 | dose-dependent decrease | dose-dependent decrease | decrease in CD81 | dose-dependent decrease | dose-dependent decrease | ≤ 57% | no effects on cell viability | lower phosphorylation of Histone H1 | number of EVs released ([1]; 1, 5, 10 μg/mL, FIG. 8A lanes 5-7, less drastic than CBD): significant reduction in the number of EVs; decrease in EV-associated myristoylated Nef dimer (70 kDa), densitometry ([2]; greatest reduction, lane 7 (THC 10 μg/mL), FIG. 10): up to 37%
